Entries after “also recorded” stand apart in the source; their conditions may differ.
Assays:
[1] = test system: mechanical allodynia of the neuropathic (“Cuff”) mice; conditions: as previously published (Benbouzid et al. 2008); cited from earlier work
[2] = test system: mechanical allodynia of the neuropathic (“Cuff”) mice; assay: Sciatic nerve cuff murine model of neuropathic pain, von Frey filament test in neuropathic (Cuff) mice; type: in vivo, C57BL/6J mice; conditions: for Mechanical allodynia of Cuff mice after the first (acute) injection: intraperitoneal, mice neuropathic for 2 weeks; for Allodynia in neuropathic (Cuff) animals after chronic treatment, recapitulation (FIG. 25): chronic treatment (14-21 days), doses and modes as in examples 7, 9 to 14 and 20 (formoterol 0.5 mg/kg, terbutalin 5 mg/kg); for Effect on neuropathic allodynia acutely after the first injection, summary statement: first injection of the agonist, doses as in examples 7, 9, 11 and 15; for Mechanical allodynia in neuropathic (Cuff) mice after chronic treatment by inhalation: twice a day
Method: (§1) The experiments were carried out on adult male mice. The pharmacological experiments were carried out using C57BL/6J mice (3-to-6 weeks old on their arrival, Charles River, L'Arbresle, France).
All the experiments began with mice that were 6-to-9 weeks old. […] For all the other experiments, the mice were combined at four to five per cage and kept under alternating 12-hour day/night (light at 6 am) with food and water ad libitum.
(§2) The model is obtained by placing a polyethylene cuff around the main branch of the right sciatic nerve of each mouse. Before any surgical procedure, the mice were assigned to the various experimental groups in such a way that the baseline mechanical nociception threshold and the weight are equivalent between the various groups. The surgical procedure was carried out under ketamin-xylazin anesthesia (ketamin: 17 mg/ml, xylazin 2.5 mg/ml, intraperitoneal injection in a proportion of 4 ml/kg) (limited liability company Centravet, Taden, France). The common branch of the sciatic nerve was exposed and a section 2 mm long of a hollow PE-20 polyethylene tube (“Harvard Apparatus”, Les Ulis, France) was placed around said branch (“Cuff” group). […] Control mice were operated on according to the same procedure, but without placing the cuff (“Sham” group). The experimental groups are made up of at least 4 mice for each control (“Sham”) group and at least 5 mice for each neuropathic (“Cuff”) group.
(§3) The mice are placed in transparent Plexiglas (registered trademark) boxes (7 cm×9 cm×7 cm) placed on a raised grid. Before the test, the mice are allowed to become accustomed to this device for 15 minutes. During the test, the von Frey filaments are applied to the plantar surface of each back foot according to ascending forces (from 0.16 g up to a foot withdrawal response, or up to a maximum of 10 g). Each filament is tested 5 times per foot and the threshold is defined by the presence of 3 or more withdrawals observed over the 5 tests. Before the surgery as described above, the animals were pretested in order to establish their baseline nociceptive response. During the chronic treatment experiments and those of repeated injection of antagonists, the tests are carried out in the mornings before the first injection of the day. During the acute agonist injection experiments, the tests are carried out after the first injection according to the time course as presented on the graphs.
The surgery for installing the cuff corresponds to day 0.
(§4) For all the treatments carried out by injection, said injections were given intraperitoneally in a volume of 50 microL per 10 mg of body weight.

[3] = test system: nociceptive sensitivity of the mice of the control (“Sham”) group; assay: von Frey filament test in control (Sham) mice operated without cuff; type: in vivo, C57BL/6J mice; conditions: for Sensitivity of control (Sham) animals under chronic treatment, recapitulation (FIG. 26): chronic treatment (14-21 days), doses and modes as in examples 2, 7, 9 to 14 and 20 (formoterol 0.5 mg/kg, terbutalin 5 mg/kg); for Nociceptive sensitivity of control (Sham) mice under chronic treatment: repeated injections, doses and modes as for the Cuff mice of the same example; for Sensitivity of control (Sham) animals, dose-response recapitulation (FIG. 21): terbutalin 0.125, 0.25, 0.5 or 5 mg/kg, nortriptylin 5 mg/kg, twice a day, 3 weeks
Method: as §1, §2, §3, §4

[4] = test system: mechanical allodynia of the neuropathic (“Cuff”) mice; assay: Cotreatment with adrenoreceptor antagonists in Cuff mice relieved by chronic nortriptylin or beta-agonist treatment, von Frey test; type: in vivo, C57BL/6J mice; conditions: for Effect of coadministered beta2-adrenoreceptor antagonist ICI 118,551 on the allodynia of agonist-treated Cuff mice: ICI 118,551 2 mg/kg intraperitoneal, after 3 weeks of agonist treatment (doses as in chronic treatment; terbutalin 0.5 mg/kg), 3 to 6 days of cotreatment; for Effect of ICI 118,551 on the therapeutic effect of chronic agonist treatment on neuropathic allodynia, summary statement: chronic treatment with the agonist plus beta2-adrenoreceptor antagonist ICI 118,551
Method: as §2
For the tests, in the examples which follow, the pressure is exerted on the foot of the mice by means of von Frey filaments (Bioseb, Chaville, France) (Benbouzid, M. et al. Biological Psychiatry 63:633-636 (2008) (10) and Benbouzid, M. et al. European Journal of Pain 12:591-599 (2008) (11)). The mice are placed in transparent Plexiglas (registered trademark) boxes (7 cm×9 cm×7 cm) placed on a raised grid. Before the test, the mice are allowed to become accustomed to this device for 15 minutes. During the test, the von Frey filaments are applied to the plantar surface of each back foot according to ascending forces (from 0.16 g up to a foot withdrawal response, or up to a maximum of 10 g). Each filament is tested 5 times per foot and the threshold is defined by the presence of 3 or more withdrawals observed over the 5 tests. Before the surgery as described above, the animals were pretested in order to establish their baseline nociceptive response. During the chronic treatment experiments and those of repeated injection of antagonists, the tests are carried out in the mornings before the first injection of the day. During the acute agonist injection experiments, the tests are carried out after the first injection according to the time course as presented on the graphs.
The procedure for intrathecal (i.t.) injection of the beta2-adrenoreceptor antagonist ICI 118,551 (3 μg in 10 μl) is carried out under halothane gas anesthesia according to the protocol described by Inoue et al. (Nature Medicine 2004, 10:712-718 (12)). These i.t. injections are carried out just before the intraperitoneal injection of salbutamol (2 mg/kg, i.p.). A 27-gauge injection needle connected to a 50 μl Hamilton syringe is inserted, between the L5 and L6 vertebrae, into the subarachnoid space. The correct placement of the needle is verified by the presence of a reflex movement of the tail of the mouse. The mice are pretested before this cotreatment procedure, and then cotreated twice (a morning and the corresponding evening) before being retested the following morning for their mechanical nociceptive sensitivity.

[5] = 5 mg/kg, injection twice a day (morning and evening), chronic
[6] = 0.5 mg/kg, injection twice a day, chronic

| SMILES | Sensitivity of the neuropathic mouse model to chronic treatment with a tricyclic antidepressant [1] | Mechanical allodynia in neuropathic (Cuff) mice after chronic treatment [2, 5] | Sensitivity of control (Sham) animals under chronic treatment, recapitulation (FIG. 26) [3] | Nociceptive sensitivity of control (Sham) mice under chronic treatment [3] | Sensitivity of control (Sham) animals, dose-response recapitulation (FIG. 21) [3] | Allodynia in neuropathic (Cuff) animals after chronic treatment, recapitulation (FIG. 25) [2] | Effect on neuropathic allodynia acutely after the first injection, summary statement [2] | Effect of coadministered beta2-adrenoreceptor antagonist ICI 118,551 on the allodynia of agonist-treated Cuff mice [4] | Effect of ICI 118,551 on the therapeutic effect of chronic agonist treatment on neuropathic allodynia, summary statement [4] | other results |
| --- | --- | --- | --- | --- | --- | --- | --- | --- | --- | --- |
| CN(C)CCC=C1c2ccccc2CCc2ccccc21 [amitriptylin] | sensitive to chronic treatment |  |  |  |  |  |  |  |  |  |
| CNCCC=C1c2ccccc2CCc2ccccc21 [nortriptylin] | sensitive to chronic treatment | ineffective initially, but subsequently causes the allodynia to completely disappear | does not impair the sensitivity of control animals | not affected | does not impair the sensitivity of control animals |  |  |  |  |  |
| CC(C)(C)NCC(O)c1ccc(O)c(CO)c1 (stereo not drawn) [salbutamol] |  |  | do not affect the control animals; also recorded: does not aspecifically affect the sensitivity of the control animals | not affected |  | relieve this allodynia; also recorded: causes the neuropathic pain, for example the neuropathic allodynia, to completely disappear | not observed acutely after the first injection | causes the allodynia to reappear | blocks the therapeutic effect | Mechanical allodynia in neuropathic (Cuff) mice after chronic treatment ([2]; 2 mg/kg, injection twice a day, chronic): relieves the mechanical allodynia; Mechanical allodynia of Cuff mice after the first (acute) injection ([2]; 2 mg/kg): has no effect on the mechanical allodynia; Mechanical allodynia in neuropathic (Cuff) mice after chronic treatment by inhalation ([2]; salbutamol sulfate inhaler (Ventolin), 100 μg per session for 2 weeks, then inhaler pressed 3 times per session for 9 days): relieves the mechanical allodynia; also recorded: relieves neuropathic allodynia; Effect of intrathecal beta2-adrenoreceptor antagonist ICI 118,551 on the allodynia of agonist-treated Cuff mice ([4]; ICI 118,551 3 μg in 10 μl intrathecal before each of 2 injections of salbutamol 2 mg/kg i.p., after at least 3 weeks of salbutamol): causes the allodynia to reappear; also recorded: blocks the therapeutic effect |
| OCc1cc(C(O)CNCCCCCCOCCCCc2ccccc2)ccc1O (stereo not drawn) [salmeterol] |  |  | do not affect the control animals; also recorded: does not aspecifically affect the sensitivity of the control animals | not affected |  | relieve this allodynia; also recorded: causes the neuropathic pain, for example the neuropathic allodynia, to completely disappear | not observed acutely after the first injection | causes the allodynia to reappear | blocks the therapeutic effect | Mechanical allodynia in neuropathic (Cuff) mice after chronic treatment ([2]; 1 mg/kg, injection twice a day, chronic): completely suppresses the mechanical allodynia; Mechanical allodynia of Cuff mice after the first (acute) injection ([2]; 1 mg/kg): has no effect on the mechanical allodynia; Mechanical allodynia in neuropathic (Cuff) mice after chronic treatment by inhalation ([2]; salmeterol xinafoate inhaler (Serevent), 50 μg per session for 2 weeks, then inhaler pressed four times per session for 9 days): relieves the mechanical allodynia; also recorded: relieves neuropathic allodynia |
| CC(C)(C)NCC(O)c1cc(O)cc(O)c1 (stereo not drawn) [terbutalin] |  | completely suppresses the mechanical allodynia | do not affect the control animals; also recorded: does not aspecifically affect the sensitivity of the control animals | not affected | do not affect | relieve this allodynia; also recorded: causes the neuropathic pain, for example the neuropathic allodynia, to completely disappear | not observed acutely after the first injection | causes the allodynia to reappear | blocks the therapeutic effect | Mechanical allodynia of the right (neuropathic) foot after chronic treatment ([2]; 0.125 mg/kg, injection twice a day, chronic): completely suppress the mechanical allodynia; Mechanical allodynia of the right (neuropathic) foot after chronic treatment ([2]; 0.25 mg/kg, injection twice a day, chronic): completely suppress the mechanical allodynia; Mechanical allodynia in neuropathic (Cuff) mice after chronic treatment [2, 6]: completely suppresses the mechanical allodynia; Response of the non-neuropathic left foot (foot without surgery) of Cuff mice [2, 6]: without aspecifically affecting the response; Mechanical allodynia of Cuff mice after the first (acute) injection ([2]; 5 mg/kg): has no effect on the mechanical allodynia; Mechanical allodynia in neuropathic (Cuff) mice after chronic application of a gel to the skin ([2]; 0.1 ml of gel twice a day, 2.5 mg/ml terbutalin hemisulfate in 5% hydroxyethylcellulose gel, from 8 days after surgery): relieves the mechanical allodynia; also recorded: relieves neuropathic allodynia; Mechanical sensitivity of the non-neuropathic left foot of Cuff mice (FIG. 21) ([2]; 0.125, 0.25, 0.5 or 5 mg/kg twice a day, chronic (3 weeks)): without affecting the mechanical sensitivity; Allodynia of the neuropathic right foot, dose-response recapitulation (FIG. 21) ([2]; 0.125, 0.25, 0.5 or 5 mg/kg twice a day, chronic (3 weeks), averaged over third week): suppresses the allodynia; Mechanical allodynia in neuropathic (Cuff) mice with subcutaneous implant (continuous delivery) ([2]; silicone tube implant containing 10 mg terbutalin hemisulfate, inserted 14 days after surgery): relieves the mechanical allodynia; also recorded: relieves neuropathic allodynia |

Source: patent US20110027352A1, “COMPOUNDS FOR USE IN THE TREATMENT OF NEUROPATHIC PAIN” (priority 2008, published 2011)
